The results in this text go back to US8288548B2, “Oxazolo[5-4-b]pyridin-5-yl compounds” (Eli Lilly and Company, priority 2010, dated 2012).

SMILES strings stand for the structures. pIC50: −log10 of the molar value.

One assay has as its target human p38α MAP kinase (Homo sapiens, UniProt Q16539). Kind of assay: Inhibition of p38α MAP kinase enzyme activity (33P-ATP filter assay). It is filed as biochemical. Conditions: 100 μM ATP, 11.8 nM p38α MAP kinase. Here is the method: The kinase reaction buffer is prepared as a stock solution containing 1440 μL of 1 M 4-(2-hydroxyethyl)-1-piperazineethanesulfonic acid (HEPES) pH 7.5, 240 μL of 1 M MgCl2, 72 μL of 1 M dithiothreitol (DTT), 25 μL of 10% TRITON® X-100, 43223 μL of H2O. The substrate mix is prepared by combining the following: 2775 μL kinase reaction buffer, 75.0 μL adenosine triphosphate (ATP) at 10 mM, 270 μL EGFR peptide (Upstate Biotechnology/Millipore) at 4 mM (9.17 mg/mL) and 12.5 μL ^33P-ATP. The p38 MAP kinase enzyme stock solution is prepared by diluting 0.1 mg/mL solution of purified human p38α MAP kinase in 3000 μL of reaction buffer. Stock solutions of test compounds are generated by dissolving the compounds in 100% dimethyl sulfoxide (DMSO) at 10 mM. 100 μM stock dilution plates are generated by diluting 2 μL of 10 mM stock in 198 μL of 20% DMSO. 1:3 dilutions in 20% DMSO are generated from the 100 μM stock using a Tecan liquid handler.
For the kinase assay, 5 μL of diluted compound is transferred to the reaction plate, followed by 10 μL of enzyme stock solution (added using a MULTIDROP® liquid dispenser). […] Following the washing steps, 80 μL of MICROSCINT™20 is added and the radioactivity counted in a Trilux MICROBETA®. IC50 values are calculated using Activity Base software (IDBS).

The next assay concerns p38 MAP kinase. Kind of assay: In vivo inhibition of p38 MAP kinase in U87MG tumor-bearing mice (p-MAPKAPK2 in tumor lysates). On the set-up: species or system athymic nude mice. Conditions: oral, 2 hours after dosing. Here is the method: A murine xenograft model utilizing the human tumor cell line, U87MG, is used for assessment of inhibition of p38 MAP kinase in tumors
Female athymic nude mice (24-26 g, Harlan) are injected subcutaneously in the rear flank with 5×10^6 U87MG cells per animal Cells are injected in a 0.2 mL volume with a 1:1 mixture of cell culture media and BD […]™ matrix. 7 days after implant tumors are measured using a caliper and the data recorded. Tumors are measured twice weekly thereafter and the tumor size is recorded. When tumors reach an average volume of approximately 250 mm^3 (usually 10-15 days after implant), animals are randomized into groups of 8-10 for treatment. Animals are then dosed orally with 0.2 mL vehicle (1% HEC, 0.25% TWEEN® 80, 0.05% antifoam) alone or vehicle containing test compound. 2 Hours after dosing, animals are euthanized. […]
p-MAPKAPK2 levels in the tumor lysates are determined using a Mesoscale Discovery (MSD) capture ELISA kit (2 Phospho-MAPKAPK-2 (Thr334)). The concentration of protein in the lysates is determined using a BioRad DC protein assay kit (BioRad). […] Following incubation with the detection antibody, the MSD plate is washed followed by addition of MSD read buffer. After passage of current over the electrode, electro-chemiluminescence results in the generation of light that is quantified using the MSD Sector 6000 instrument. […]

Sequence of human p38α MAP kinase (Q16539 whole entry): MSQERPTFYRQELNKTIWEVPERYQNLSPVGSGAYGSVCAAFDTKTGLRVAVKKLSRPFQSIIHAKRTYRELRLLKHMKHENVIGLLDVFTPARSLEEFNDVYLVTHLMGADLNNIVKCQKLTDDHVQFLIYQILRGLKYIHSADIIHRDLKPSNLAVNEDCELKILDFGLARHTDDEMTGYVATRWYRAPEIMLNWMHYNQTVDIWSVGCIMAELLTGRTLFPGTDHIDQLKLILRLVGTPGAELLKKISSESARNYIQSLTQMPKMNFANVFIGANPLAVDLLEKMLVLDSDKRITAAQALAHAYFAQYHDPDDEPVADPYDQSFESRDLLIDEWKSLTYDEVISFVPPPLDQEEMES

As usually defined, the pIC50 is the IC50 on a negative log10 scale, so that one unit is a factor of ten. In the case of `COCC[C@H](C)Nc1nc2ccc(-c3nc(C(C)(C)CO)[nH]c3-c3ccc(F)cc3F)nc2o1` [Example 1, 2-[5-(2,4-Difluorophenyl)-4-[2-[[(1S)-3-methoxy-1-methyl-propyl]amino]oxazolo[5,4-b]pyridin-5-yl]-1H-imidazol-2-yl]-2-methyl-propan-1-ol], the pIC50 on human p38α MAP kinase was 8.52. Moreover, the “TED70 for p38 MAP kinase target inhibition in tumors” value in the assay with p38 MAP kinase is recorded as 2.9 mg/kg. This compound returned a TEC70 with p38 MAP kinase (U87MG tumors) of 31.3 ng/mL.
